Experimental data published in US12605350B2, “Composition for preventing, ameliorating, or treating disease caused by nitration of tyrosine in proteins comprising tyrosine as effective component” (INDUSTRY-ACADEMIC COOPERATION FOUNDATION GYEONGSANG …, priority 2020, dated 2026).

Key:
[1] = test system: chronic immobilization stress group (STR); experiment: OFT (open field test) after chronic immobilization stress; type: in vivo, mouse; conditions: tyrosine-diet (TD, 181.2 mg/kg) compared to normal diet (ND)
Description: The animal models were divided into two groups (i.e., normal group and stress group). The animal of stress group was individually brought by force to a restrainer for 2 hours every day (i.e., between 2 PM and 4 PM) so that it was applied with chronic immobilization stress for 15 days. Change in bodyweight and food intake amount were measured every other day. The normal group and stress group were divided again into a normal diet group and a tyrosine-supplemented diet group (181.2 mg/kg), and then fed. OFT (open field test) was carried out using a rectangular box (60×60×20 cm). Mouse was placed at the center area of box (30×30 cm), and the mouse movement was followed for 5 minutes and total travel distance, center area duration, and frequency of center area entries were measured.

[2] = test system: chronic immobilization stress group (STR); experiment: SPT (sucrose preference test) after chronic immobilization stress; type: in vivo, mouse; conditions: tyrosine diet (181.2 mg/kg) compared to normal diet, p<0.01
Description: The animal models were divided into two groups (i.e., normal group and stress group). The animal of stress group was individually brought by force to a restrainer for 2 hours every day (i.e., between 2 PM and 4 PM) so that it was applied with chronic immobilization stress for 15 days. Change in bodyweight and food intake amount were measured every other day.
The normal group and stress group were divided again into a normal diet group and a tyrosine-supplemented diet group (181.2 mg/kg), and then fed.
For SPT (sucrose preference test), 0.1 M sucrose and water were provided for 48 hours so that the animals are habituated with them. After that, none of 0.1 M sucrose and water was provided for 24 hours, and then 0.1 M sucrose and water were provided again for 6 hours. Then, 0.1 M sucrose and water were moved to different positions for 3 hours.
After that, consumption amount of sucrose and water was measured, and the sugar preference was calculated in terms of the ratio of provided sucrose compared to total consumption amount.

[3] = test system: mouse model of stroke using endothelin-1; experiment: brain infarction (cresyl violet staining) in endothelin-1 stroke model; type: in vivo; conditions: endothelin-1 (2 μg) to cerebral motor cortex, tyrosine 900 mg/kg (feed weight)
Description: To de-ionized water, endothelin-1 was added (2 μg/μl), and, after vigorous vortexing, completely dissolved by ultrasonication at 4° C. for about 10 minutes.
(§1) The mouse was anesthetized by intraperitoneal injection of avertin as an anesthetic (0.5 ml/25 g of mouse bodyweight). Thereafter, endothelin-1 was injected (2 μg) to the cerebral motor cortex area (with bregma at the center, AP 1.5 mm, ML-1.5 mm, and DV 1.8 mm) by stereotaxic surgery. The injection was made at speed of 0.3 μl per minute. The needle was left for about 5 minutes after completing the injection so that endothelin-1 can be fully absorbed in animal tissues. After suturing the skin, the animal was allowed to recover in the original cage.
Perfusion with PBS and PFA was carried out, via animal heart and the brain was removed and post-fixed in PFA for 15 hours or longer. After washing 3 times for 10 minutes with PBS, brain tissue specimen with thickness of 40 μm was obtained using a vibratome. Then, four specimens collected from the area injected with endothelin-1 were fixed on a silane-coated glass slide. […] The stained specimen sample was observed under an optical microscope, and, with the stored image, the area showing brain infarction was calculated by using Image J analysis program.

[4] = test system: glutamine synthetase (GS); experiment: activity of glutamine synthetase (GS) in lysate of cerebral motor cortex, endothelin-1 stroke model; type: in vivo, mouse; conditions: Tyr diet (905 mg/kg L-Tyr)
Description: as §1
To a 96-well plate, 2 μl of lysate of cerebral motor cortex were added, and then adjusted to 50 μl by additionally adding 50 mM imidazole-HCl buffer solution (pH 6.8). After adding 50 μl of GS activity assay buffer solution (50 mM imidazole-HCl, pH 6.8, 25 mM L-glutamine, 12.5 mM hydroxylamine, 12.5 mM sodium arsenate, 1 mM MnCl2 and 0.08 mM ADP), the reaction was allowed to occur at 37° C. for 30 to 60 minutes.
Upon the completion of the reaction, γ-glutamylhydroxamate as a reference material was added to an empty well (0.391 to 25.0 mM). To the sample and reference material, 100 μl of reaction termination solution (90 mM FeCl3, 1.8 N HCl and 1.45% trichloroacetic acid) were added and absorbance at a wavelength of 560 nm was measured. Based on comparison with standard curve, GS activity was obtained for each sample. […]

[5] = test system: acute renal failure caused by kidney ischemia or reperfusion injury; experiment: ROS/RNS amount in mitochondria, renal ischemia and reperfusion; type: in vivo, mouse; conditions: L-tyrosine 100 mg/kg oral for 4 days, IR
Description: (§2) C57BL/6 male mouse (23 to 25 g, KOATECH, South Korea) was allowed to have free access to diets and water in sterile breeding room with constant temperature and humidity. The animals were divided into 3 test groups, i.e., 1) Control group (Sham), 2) Renal ischemia having treatment with prepared solvent and induced reperfusion group (CMC+IR), and 3) Renal ischemia having treatment with L-tyrosine and induced reperfusion group (L-Tyr+IR).
(§3) L-Tyrosine (100 mg/kg) was suspended in 0.5% CMC (carboxymethyl cellulose). The animal was orally administered, once a day for 4 days, with L-tyrosine or the prepared solvent CMC. Thirty minutes after the oral administration on Day 4, renal ischemia was caused. Specifically, the animal abdomen was cut and renal pedicles at both sides were clamped using a Muller atraumatic vascular clamp to cause renal ischemia. After 25 minutes of blood ischemia, the clamp was removed followed by reperfusion. The control group (Sham) received the same operational procedures as above except the ischemia using clamp. Twenty-four hours after the reperfusion, the test animal was sacrificed, blood was collected from the heart, and the tissues were harvested.

Cu/Zn SOD = experiment: activity of Cu/Zn SOD, renal ischemia and reperfusion; type: in vivo, mouse; conditions: L-tyrosine 100 mg/kg oral for 4 days, IR
Description: as §2, §3

[6] = test system: high-fat diet mouse model of type 2 diabetes; experiment: high-fat diet mouse model of type 2 diabetes: bodyweight, food intake amount, blood glucose; type: in vivo; conditions: HFD+L-Tyr (181 mg of L-tyrosine/kg) compared to HFD, measured every week
Description: Twenty-seven C57BL/6 male mice (3-week old) were acclimated to the breeding condition for 1 week. […] Blood glucose was measured every week.

| Structure (SMILES) | center area duration [1] | frequency of center area entries [1] | travel distance [1] | sugar preference [2] | infarct volume [3] | GS activity of the tissues (cerebral motor cortex) [4] | ROS/RNS amount in mitochondria [5] | activity of Cu/Zn SOD (Cu/Zn SOD) | blood glucose [6] | blood glucose ([6]; listed as L-Tyr) |
| --- | --- | --- | --- | --- | --- | --- | --- | --- | --- | --- |
| N[C@@H](Cc1ccc(O)cc1)C(=O)O [tyrosine] | higher | higher | higher | statistically significant increase in the sugar preference | infarct volume is reduced | the activity can be maintained | suppressed | again recovered | – | – |
| N[C@@H](Cc1ccc(O)cc1)C(=O)O [L-tyrosine] | – | – | – | – | – | – | – | – | statistically significant decrease in blood glucose amount | statistically significant decrease |
